Legend:
Experiment in all cases: relative viability (nuclei count vs DMSO), 5 days (fraction); higher = more cells survive
[1] = compound: CC1=CN2C(=O)C=C(N=C2C(=C1)C(C)NC3=CC=CC=C3)N4CCOCC4 [TGX 221] + COc1cccc2cc(-c3nc([C@H]4CC[C@H](C(=O)O)CC4)n4ncnc(N)c34)[nH]c12 [OSI-027] (partner 0.5 µM)
Summary of the method: (§1)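 For relative viability, nuclei counts in treated wells were divided by those in vehicle wells. Lung cancer cell lines had been pin-tool dosed in 1536-well plates the day after seeding and cultured for 5 days, then fixed and stained in one step (final 0.05% Triton X-100, 1% formaldehyde, 1 ug/ml Hoechst) and imaged at 4×. Doses were one drug alone or a fixed anchor-drug dose plus five library-drug doses (not always all listed) in √10 steps, and values are duplicate-plate medians.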

[2] = compound: C1=CC=C(C(=C1)C2=CC=C(C=C2)C3=CSC4=C3C(=C(C(=O)N4)C#N)O)O + CS(=O)(=O)N1CCN(Cc2cc3nc(-c4cccc5[nH]ncc45)nc(N4CCOCC4)c3s2)CC1 [Pictilisib] (partner 1 µM)
Summary of the method: as §1

[3] = compound: CC1=CN2C(=O)C=C(N=C2C(=C1)C(C)NC3=CC=CC=C3)N4CCOCC4 [TGX 221] + CS(=O)(=O)N1CCN(Cc2cc3nc(-c4cccc5[nH]ncc45)nc(N4CCOCC4)c3s2)CC1 [Pictilisib] (partner 1 µM)
Summary of the method: as §1

[4] = compound: CC1=CN2C(=O)C=C(N=C2C(=C1)C(C)NC3=CC=CC=C3)N4CCOCC4 [TGX 221] + Cc1nc(Nc2ncc(C(=O)Nc3c(C)cccc3Cl)s2)cc(N2CCN(CCO)CC2)n1 [Dasatinib] (partner 0.075 µM)
Summary of the method: as §1

## NCI-H1792
[1]; first compound 0.08 µM
  relative viability: 0.768
[1]; first compound 0.253 µM
  relative viability: 0.601
[1]; first compound 0.8 µM
  relative viability: 0.71
[1]; first compound 2.53 µM
  relative viability: 0.517
[1]; first compound 8 µM
  relative viability: 0.564
[2]; first compound 0.253 µM
  relative viability: 0.275
[2]; first compound 0.8 µM
  relative viability: 0.266
[2]; first compound 2.53 µM
  relative viability: 0.19
[2]; first compound 8 µM
  relative viability: 0.18
[3]; first compound 0.08 µM
  relative viability: 0.29
[3]; first compound 0.253 µM
  relative viability: 0.281
[3]; first compound 0.8 µM
  relative viability: 0.294
[3]; first compound 2.53 µM
  relative viability: 0.246
[3]; first compound 8 µM
  relative viability: 0.228
[4]; first compound 0.08 µM
  relative viability: 0.831
[4]; first compound 0.253 µM
  relative viability: 0.699
[4]; first compound 0.8 µM
  relative viability: 0.785
[4]; first compound 2.53 µM
  relative viability: 0.7
[4]; first compound 8 µM
  relative viability: 0.503
